Columns and labels:
Muc5B [1] = target: T1, Muc5B (Homo sapiens, UniProt Q9HC84); test: Mucin agarose gel western blot (saliva / mucus samples); assay type: biochemical; conditions: for reducing capacity relative to 76 (Muc5B): FIG. 3; for Muc5b reduction: FIG. 4
T1 construct: Various mucin-containing substrates (e.g. saliva, harvested HBE mucus, and disease sputum) treated with our monothiol mucolytic compounds; from tissue; host or cells: saliva; harvested HBE mucus; disease sputum
Method: (§1) Various mucin-containing substrates (e.g. saliva, harvested HBE mucus, and disease sputum) treated with our monothiol mucolytic compounds are quenched upon completion of the treatment period with a 10-fold excess of N-ethylmaleimide in order to alkylate any remaining active compound and to prevent further mucin reduction. A 10× concentrated sample loading buffer is diluted into each sample (1×TAE/5% glycerol/0.1% SDS/Bromophenol Blue). Samples ([…]) were analyzed by electrophoresis on 0.9% agarose gels using a buffer system consisting of 1×TAE/0.1% SDS. The agarose gel was soaked for 15 min in 4×SSC (0.6 M NaCl, 60 mM Tri-sodium citrate dehydrate) containing 10 mM DTT before transferring the samples from the gel onto a nitrocellulose membrane by vacuum blotter. Unreduced and reduced Muc5B were visualized on a LiCor Odyssey imaging detection system using a polyclonal antibody directed towards Muc5B.

[2] = DTNB assay: rate of S-S bond reduction; assay type: biochemical; conditions: for DTNB reduction rate: 22.5 μM reducing agent, 45 μM DTNB, 50 mM Tris-HCl
From the text: Thiol-containing compounds, such as the monothiol mucolytic agents described in this patent, can react with DTNB (5,5-Dithiobis(2-nitrobenzoic acid)) resulting in the cleavage of its single S—S bond. The DTNB assay serves a dual purpose in our analysis of monothiol compounds, as it can (1) be used to determine the “active concentration” of the mucolytic compounds (what amount of the compound in a reaction is able to cleave S—S bonds) and (2) to assess the rate that the compound can cleave S—S bonds. When cleaved, the resulting compound, NTB (2-nitro-5-thiobenzoate), is a colored product that is measured spectrophotometrically at an absorbance of 412 nm (Abs412). Using the molar extinction coefficient of NTB and measured maximum Abs412, the molar amount of DTNB that reacted with our mucolytic agents can be calculated. Monothiol mucolytic compounds react at a 1:1 stoichiometric ratio with DTNB (i.e. 1 mole of NTB is produced when 1 mole of DTNB is reacted with 1 mole of a monothiol reducing agent). To define the activity concentration of a compound, a final concentration of 22.5 μM mucolytic reducing agent was combined with an excess of DTNB (100 μM) in 1 mL 50 mM Tris-HCl buffer (pH 7.5). Maximum Abs412 was measured and then utilized to calculate the activity concentration. If observed activity concentrations differed from expected activity concentrations by more than 5%, the amount of the compound added to each reaction was accordingly adjusted to kinetically test the reducing rate in the next step. To determine rate of mucolytic reducing activity, 22.5 μM active reducing agent is combined with 45 μM DTNB in 1 mL 50 mM Tris-HCl buffer over a pH range (6.0-7.5). Abs412 is recorded in real time upon addition of the compound and rates were calculated using 2nd order kinetic parameters.

IL-8 = IL-8 Secretion from primary HBEs (ELISA); assay type: cell-based, human; conditions: FIG. 6B; 10 mM, apical surface of HBE cells, 24 hours
Method: Reducing agents were made up in 50 mM Tris-HCl buffered to pH 7.5. Each compound solution (15 μL of 10 mM compound) was added to the apical surface of primary HBEs.
IL-8 secretion was measured from the basolateral HBE media 24 hours post-dose using a ThermoScientific human IL-8 ELISA kit. Samples were diluted 1:50 and then 50 μL of each dilution was added to the ELISA plate. The samples were completed in duplicate following standard reaction conditions as outlined in the kit manual. Absorbance was measured at 450 nm. A standard curve, generated from standards with known amounts of human IL-8, was used to calculate IL-8 amounts in the unknown samples. Supernatant from mucopurlent matters (SMM) purified from cystic fibrosis sputum was used as a positive control for IL-8 secretion.

[3] = Parallel Artificial Membrane Permeability (PAMPA) Assay; assay type: in vitro ADME; conditions: FIG. 5; 5 hours, room temperature
Method: This assay measures the permeability of small molecules across an artificial phospholipid membrane to help predict in vivo drug permeability. First, 500 μM stock solutions were made up in PBS and tested by the DTNB assay (described above) to determine compound activity concentrations. Next, 300 μL of the 500 μM compound stock solution and 200 uL PBS were added per well to the donor and acceptor plates, respectively (BD Gentest™ Pre-Coated PAMPA Plate System). The acceptor plate was then placed on top of the donor plate and allowed to incubate at room temperature for 5 hours. After incubation, the donor and acceptor plates were separated. For each reaction, samples were taken from both the acceptor and donor plates and were combined with DTNB prior to reading spectrophotometrically (maximum Abs412). For prodrug samples, 1 μL of purified esterase (porcine liver esterase; Sigma) was added per well and the samples were incubated at room temperature for 5 minutes to allow for cleavage of the pro-drug cap prior to addition of DTNB. Using the concentrations of compound identified in both the donor and acceptor plates for each sample, a compound permeability parameter was calculated following equations outlined in the BD Gentest™ Pre-Coated PAMPA Plate System Manual.

Muc5B [4] = target: T1, Muc5B; test: Muc5b reduction in COPD sputum, agarose gel western blot; assay type: biochemical; conditions: FIG. 8; spontaneously induced sputum from a patient with COPD
Method: as §1
An important aspect of mucolytic pro-drugs is that they must be activated in mucus on the lung surface.

[5] = Pro-Drug DTNB assay with or without esterase; assay type: biochemical
Method: The present invention provides a series of mucolytic pro-drugs (see R^6=other than H) that are activated by common enzymes that are present in the extracellular milieu (e.g., nucelotidases, phosphatases, and esterases). As a proof-of-concept, the reducing kinetics of the pro-drug compound 46 in the presence or absence of an activating esterase were tested.
This assay was designed to determine whether prodrug caps added on to our monothiol mucolytic compounds can be cleaved from the molecule. If so, the outcome would be an “active” compound that is able to reduce the S—S bond in DTNB. Similar to the activity concentration version of the DTNB assay described above, monothiol prodrugs were mixed at a final concentration of 22.5 μM with excess DTNB (100 μM final) in 1 mL 50 mM Tris-HCl buffer (pH 7.5) and maximum Abs412 was measured. In the absence of a purified hydrolytic enzyme (e.g. porcine liver esterase; Sigma), the amount of DTNB cleavage observed is an indicator for stability of the cap on the prodrug compound (i.e. if the prodrug remains intact in solution the Abs412=0). Next, 5 uL of esterase (bought as an ammonium sulfate suspension that is subsequently centrifuged to isolate the esterase and then dissolved in reaction buffer prior to assaying) is combined with excess DTNB (100 μM final) and 22.5 μM pro-drug in 1 mL 50 mM Tris-HCl buffer (pH 7.5). Cleavage of the prodrug cap can be visualized in real time via DTNB cleavage at Abs412 by the esterase-liberated monothiol molecule.

[6] = test system: mucus on primary human bronchial epithelial (HBE) cultures; test: Mucus reduction on primary human bronchial epithelial (HBE) cultures, western blot; assay type: cell-based; conditions: FIG. 9; added to apical surface of HBE cultures
Method: as §1
Mucin reduction kinetics were assessed by western blot at the indicated times post-addition of mucolytic agents to the apical surface of HBE cultures.

[7] = Elimination of inhaled 14C-labelled NAC from the lungs in animal studies; assay type: in vivo; conditions: inhaled or intranasal, 14C-labled NAC, administered by inhalation, animal studies (unpublished observation)

With `NCCCC[C@@H](N)C(=O)NCCOc1ccc(CS)cc1` [Compound 69, (R)-2,6-diamino-N-(2-(4-(mercaptomethyl)phenoxy)ethyl)hexanamide] the “reducing capacity relative to 76 (Muc5B)” value (Muc5B [1]) was “retain the reducing capacity of 76”, the DTNB reduction rate ([2]; pH 6) was 485.93 M⁻¹ s⁻¹ and the IL-8 secretion (IL-8) was “did increase IL-8 secretion”.
With `CC(=O)SCc1ccc(OCCN)cc1.Cl` [Compound 76, S-4-(2-aminoethoxy)benzyl ethanethioate hydrochloride] the “Muc5b reduction relative to NAC” value (Muc5B [1]; FIG. 2, 10 mM, 5-fold lower concentration than NAC) was “greater Muc5b reduction relative to NAC”, the “reduction of salivary Muc5b compared to NAC” value (Muc5B [1]; FIG. 2, equimolar concentrations relative to NAC (50 mM)) was “significantly faster and more complete reduction” and the “membrane permeability (PAMPA)” value [3] was “membrane permeable”. For the same molecule, the DTNB reduction rate ([2]; pH 6) was 253.2 M⁻¹ s⁻¹, the DTNB reduction rate ([2]; pH 6.5) was 654.24 M⁻¹ s⁻¹ and the DTNB reduction rate ([2]; pH 7) was 1499 M⁻¹ s⁻¹. The DTNB reduction rate ([2]; pH 7.5) was 4633.8 M⁻¹ s⁻¹ and the IL-8 secretion (IL-8) was “did not increase IL-8 secretion”.
With `CC(=O)SCc1ccc(OCCN(C[C@H](O)[C@@H](O)[C@H](O)[C@H](O)CO)C[C@H](O)[C@@H](O)[C@H](O)[C@H](O)CO)cc1` [Compound 85, S-4-(2-(bis((2S,3R,4R,5R)-2,3,4,5,6-pentahydroxyhexyl)amino)ethoxy)benzyl Ethanethioate] the “membrane permeability (PAMPA)” value [3] was “poor membrane permeability”, the “Muc5b reduction in sputum” value (Muc5B [4]) was “reduces the Muc5b, but with a delayed kinetic relative to 86” and the “Reduction Without Esterase” value ([5]; 22.5 μM prodrug, 100 μM DTNB, pH 7.5, no enzyme) was “No”. The “Reduction With Esterase” value ([5]; 22.5 μM prodrug, 100 μM DTNB, pH 7.5, porcine liver esterase) was “Yes”, the “DTNB cleavage without esterase” value ([5]; FIG. 7 middle panel) was “does not cleave DTNB” and the “DTNB cleavage after addition of an esterase” value ([5]; FIG. 7 right-hand panel) was “metabolically converts 85 to 86, allowing it to hydrolyze DTNB”. For the same molecule, the “duration of mucus reduction” value [6] was “potentially longer duration of action” and the mucin reduction kinetics [6] was “slower reduction kinetics”.
With `OC[C@@H](O)[C@@H](O)[C@H](O)[C@@H](O)CN(CCOc1ccc(CS)cc1)C[C@H](O)[C@@H](O)[C@H](O)[C@H](O)CO` [Compound 86, (2R,2′R,3R,3′R,4R,4′R,5S,5′S)-6,6′-((2-(4-(mercaptomethyl)phenoxy)ethyl)azanediyl)bis(hexane-1,2,3,4,5-pentaol)] the “reducing capacity relative to 76 (Muc5B)” value (Muc5B [1]) was “retain the reducing capacity of 76”, the Muc5b reduction (Muc5B [1]; 3 mM) was “partial reduction” and the Muc5b reduction (Muc5B [1]; 30 mM) was “full Muc5b reduction”. The “membrane permeability (PAMPA)” value [3] was “poor membrane permeability”, the “Muc5b reduction in sputum” value (Muc5B [4]) was “rapidly reduced Muc5b” and the DTNB cleavage ([2]; FIG. 7 left panel) was “rapidly cleaves DTNB”. The DTNB reduction rate ([2]; pH 6) was 160 M⁻¹ s⁻¹, the IL-8 secretion (IL-8) was “no change in IL-8” and the “duration of mucus reduction” value [6] was “substantially recovered 24 hours after dosing”. The mucin reduction kinetics [6] was “rapid reduction of the mucus”.
With `CC(=O)N[C@@H](CS)C(=O)O` [NAC, N-acetyl cysteine, reference compound] the half-life [7] was ~20 min, the Muc5b reduction (Muc5B [1]; 30 mM) was “partial Muc5b reduction” and the DTNB reduction rate ([2]; pH 6) was 10 M⁻¹ s⁻¹. It also gave a DTNB reduction rate ([2]; pH 6.5) of 26 M⁻¹ s⁻¹, a DTNB reduction rate ([2]; pH 7) of 69 M⁻¹ s⁻¹ and a DTNB reduction rate ([2]; pH 7.5) of 230 M⁻¹ s⁻¹.
